The source of these data is patent US11512079B2, “Heterocycle substituted pyridine derivative antifungal agents” (Amplyx Pharmaceuticals, Inc., priority 2017, dated 2022).

≈ marks a conversion by molar mass, not a printed value.

Holding throughout (assay type): cell-based
In one experiment the test system is Cryptococcus gattii. Kind of experiment: In vitro antifungal assay (Example IX), microdilution broth, MIC. To be noted: minimum inhibitory concentration (≥50% inhibition), 35° C., 72 h (Cryptococcus), RPMI1640. In a few lines: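 MIC was determined from OD600 after 72 h at 35 °C for Cryptococcus, in RPMI1640 inoculated at 2.5×10^3 cells/mL. Compounds were tested as a 2-fold series from 2 to 0.0019 μg/mL final, added from DMSO intermediates at a 100-fold dilution.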

Experiment [1] concerns Rhizomucor pusillus 46342. Kind of experiment: In vitro antifungal assay (Example IX), microdilution broth, MEC. To be noted: minimum effective concentration (shortening of hyphae), 35° C., 40-48 h, RPMI1640. In a few lines:
(§1)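 Read-out is the minimum effective concentration: lowest compound level causing shorter hyphae than in DMSO controls, echinocandin-style. Broth microdilution used conidia or spores harvested from agar plates, cleared of mycelium and clumps, at a final 1-2×10^4 spores/mL in RPMI1640.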

Experiment [2] has as its system Aspergillus fumigatus MYA3626. The description is as above. To be noted: minimum effective concentration (shortening of hyphae), 35° C., 40-48 h, RPMI1640. In a few lines: as §1
For the next experiment, the system named is Candida albicans 90028. Kind of experiment: In vitro antifungal assay (Example IX), microdilution broth, MIC. To be noted: minimum inhibitory concentration (≥50% inhibition), 35° C., 40-48 h, RPMI1640. In a few lines: (§2)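 Yeast inocula (2.5×10^3 cells/mL, RPMI1640) were exposed to twofold compound series reaching 2-0.0019 μg/mL final, per CLSI yeast methodology. Incubation at 35° C. ran 40-48 h for Candida albicans 90028 and 72 h for Cryptococcus neoformans H99. MIC endpoints were confirmed by absorbance at 600 nm.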
(In general: Broth dilution looks for growth in wells or tubes with falling amounts of substance.)

Experiment [3] concerns Cryptococcus neoformans H99. The experiment is described as above. The note with it: minimum inhibitory concentration (≥50% inhibition), 35° C., 72 h, RPMI1640. In a few lines: as §2

Take `Nc1ncccc1-c1cc(Cc2ccc(CNc3ncccn3)cc2)no1` [compound 32, N-(4-((5-(2-aminopyridin-3-yl)isoxazol-3-yl)methyl)benzyl)pyrimidin-2-amine]: the MIC against Cryptococcus gattii is 0.1 to 1 µg/mL (≈ 0.279 to 2.79 µM); in the experiment with Candida albicans 90028, 0.01 to 0.1 µg/mL (≈ 0.0279 to 0.279 µM); in experiment [3] it was 0.1 to 1 µg/mL (≈ 0.279 to 2.79 µM). Further, the minimal effective concentration was in the range of 0.1 to 1 µg/mL in experiment [1] and 0.01 to 0.1 µg/mL in experiment [2].

Consider `Nc1ncccc1-c1cc(Cc2ccc(CNc3nc(Cl)cs3)cc2)no1` [compound 34, N-(4-((5-(2-aminopyridin-3-yl)isoxazol-3-yl)methyl)benzyl)-4-chlorothiazol-2-amine], for which the MIC in the experiment with Cryptococcus gattii is 0.1 to 1 µg/mL (≈ 0.251 to 2.51 µM); in the experiment with Candida albicans 90028 it was 0.01 to 0.1 µg/mL (≈ 0.0251 to 0.251 µM); in experiment [3], above 1 µg/mL. The minimal effective concentration in experiment [1] and in experiment [2] was 0.1 to 1 µg/mL throughout.

In the case of `Nc1ncccc1-c1cc(Cc2ccc(OCc3ccccn3)nc2)no1` [compound 35, 3-(3-((6-(pyridin-2-ylmethoxy)pyridin-3-yl)methyl)isoxazol-5-yl)pyridin-2-amine], the MIC (against Cryptococcus gattii; in the experiment on Candida albicans 90028; in experiment [3]) was 0.01 to 0.1 µg/mL (≈ 0.0278 to 0.278 µM) throughout. Further, the minimal effective concentration in experiment [1] is above 1 µg/mL; in experiment [2], 0.01 to 0.1 µg/mL.

Regarding `Nc1ncccc1-c1cc(Cc2ccc(OCc3cccnc3)nc2)no1` [compound 36, 3-(3-((6-(pyridin-3-ylmethoxy)pyridin-3-yl)methyl)isoxazol-5-yl)pyridin-2-amine], the MIC (against Cryptococcus gattii; with Candida albicans 90028; in experiment [3]) was 0.01 to 0.1 µg/mL (≈ 0.0278 to 0.278 µM) in each case. The minimal effective concentration was above 1 µg/mL in experiment [1] and 0.01 to 0.1 µg/mL in experiment [2].

For the compound `Nc1ncccc1-c1cc(Cc2ccc(OCc3ccncc3)nc2)no1` [compound 37, 3-(3-((6-(pyridin-4-ylmethoxy)pyridin-3-yl)methyl)isoxazol-5-yl)pyridin-2-amine], the MIC against Cryptococcus gattii was at most 0.01 µg/mL; in the experiment with Candida albicans 90028, 0.01 to 0.1 µg/mL (≈ 0.0278 to 0.278 µM); in experiment [3] it was at most 0.01 µg/mL. Also, the minimal effective concentration in experiment [1] is above 1 µg/mL; in experiment [2] it was 0.01 to 0.1 µg/mL.

For the compound `Cc1cc(COc2ccc(Cc3cc(-c4cccnc4N)on3)cn2)no1` [compound 38, 3-(3-((6-((5-methylisoxazol-3-yl)methoxy)pyridin-3-yl)methyl)isoxazol-5-yl)pyridin-2-amine], the MIC (with Cryptococcus gattii; against Candida albicans 90028; in experiment [3]) was 0.1 to 1 µg/mL (≈ 0.275 to 2.75 µM) each time. Further, the minimal effective concentration in experiment [1] fell in the range of 0.1 to 1 µg/mL; in experiment [2], 0.01 to 0.1 µg/mL.

Take `Nc1ncccc1-c1cc(Cc2ccc(OCCc3ccccn3)nc2)no1` [compound 39, 3-(3-((6-(2-(pyridin-2-yl)ethoxy)pyridin-3-yl)methyl)isoxazol-5-yl)pyridin-2-amine]: the MIC (in the experiment on Cryptococcus gattii; against Candida albicans 90028; in experiment [3]) was 0.1 to 1 µg/mL (≈ 0.268 to 2.68 µM) each time. The minimal effective concentration in experiment [1] is above 1 µg/mL; in experiment [2], 0.1 to 1 µg/mL.

On to `Nc1ncccc1-c1cc(Cc2ccc(OCc3cccs3)nc2)no1` [compound 40, 3-(3-((6-(thiophen-2-ylmethoxy)pyridin-3-yl)methyl)isoxazol-5-yl)pyridin-2-amine], for which the minimal inhibitory concentration (MIC) is 0.01 to 0.1 µg/mL (≈ 0.0274 to 0.274 µM) against Cryptococcus gattii, 0.1 to 1 µg/mL (≈ 0.274 to 2.74 µM) against Candida albicans 90028 and 0.01 to 0.1 µg/mL (≈ 0.0274 to 0.274 µM) in experiment [3]. Also, the minimal effective concentration in experiment [1] was in the range of 0.1 to 1 µg/mL; in experiment [2] it was 0.01 to 0.1 µg/mL.

Take `Nc1ncccc1-c1cc(Cc2ccc(OCc3cscn3)nc2)no1` [compound 41, 3-(3-((6-(thiazol-4-ylmethoxy)pyridin-3-yl)methyl)isoxazol-5-yl)pyridin-2-amine]: the MIC (with Cryptococcus gattii; in the experiment on Candida albicans 90028; in experiment [3]) was 0.01 to 0.1 µg/mL (≈ 0.0274 to 0.274 µM) each time. Besides, the minimal effective concentration in experiment [1] lay within 0.1 to 1 µg/mL; in experiment [2], 0.01 to 0.1 µg/mL.

Consider `Nc1ncccc1-c1cc(Cc2ccc(OCc3nccs3)nc2)no1` [compound 42, 3-(3-((6-(thiazol-2-ylmethoxy)pyridin-3-yl)methyl)isoxazol-5-yl)pyridin-2-amine], for which the MIC (against Cryptococcus gattii; in the experiment on Candida albicans 90028; in experiment [3]) was 0.01 to 0.1 µg/mL (≈ 0.0274 to 0.274 µM) throughout. Further, the values for the minimal effective concentration in experiment [1] and in experiment [2] were 0.1 to 1 µg/mL and 0.01 to 0.1 µg/mL, respectively.

As to `Nc1ncccc1-c1cc(Cc2ccc(OCC3CC3)nc2)no1` [compound 43, 3-(3-((6-(cyclopropylmethoxy)pyridin-3-yl)methyl)isoxazol-5-yl)pyridin-2-amine], the results for the MIC (in the experiment on Cryptococcus gattii; against Candida albicans 90028; in experiment [3]) were 0.01 to 0.1 µg/mL (≈ 0.031 to 0.31 µM), 0.1 to 1 µg/mL (≈ 0.31 to 3.1 µM) and 0.01 to 0.1 µg/mL (≈ 0.031 to 0.31 µM), respectively. Besides, the minimal effective concentration in experiment [1] was 0.1 to 1 µg/mL; in experiment [2] it was 0.01 to 0.1 µg/mL.

For the compound `Nc1ncccc1-c1cc(Cc2ccc(OCc3ncccn3)nc2)no1` [compound 46, 3-(3-((6-(pyrimidin-2-ylmethoxy)pyridin-3-yl)methyl)isoxazol-5-yl)pyridin-2-amine], the MIC (against Cryptococcus gattii; against Candida albicans 90028; in experiment [3]) was 0.1 to 1 µg/mL (≈ 0.277 to 2.77 µM) throughout. Moreover, the minimal effective concentration in experiment [1] is above 1 µg/mL; in experiment [2], 0.1 to 1 µg/mL.

As for `Nc1ncccc1-c1cc(Cc2ccc(OCc3cnccn3)nc2)no1` [compound 47, 3-(3-((6-(pyrazin-2-ylmethoxy)pyridin-3-yl)methyl)isoxazol-5-yl)pyridin-2-amine], the values for the minimum inhibitory concentration (MIC) (with Cryptococcus gattii; with Candida albicans 90028; in experiment [3]) were 0.1 to 1 µg/mL (≈ 0.277 to 2.77 µM), 0.01 to 0.1 µg/mL (≈ 0.0277 to 0.277 µM) and 0.1 to 1 µg/mL (≈ 0.277 to 2.77 µM), respectively. The minimal effective concentration in experiment [1] and in experiment [2] was 0.1 to 1 µg/mL throughout.

Turning to `Nc1ncccc1-c1cc(Cc2ccc(OCc3ccoc3)nc2)no1` [compound 48, 3-(3-((6-(furan-3-ylmethoxy)pyridin-3-yl)methyl)isoxazol-5-yl)pyridin-2-amine], the minimal inhibitory concentration (MIC) (against Cryptococcus gattii; against Candida albicans 90028; in experiment [3]) was 0.01 to 0.1 µg/mL (≈ 0.0287 to 0.287 µM) each time. In addition, the minimal effective concentration fell in the range of 0.1 to 1 µg/mL in experiment [1] and 0.01 to 0.1 µg/mL in experiment [2].

Take `Cc1nc(COc2ccc(Cc3cc(-c4cccnc4N)on3)cn2)cs1` [compound 50, 3-(3-((6-((2-methylthiazol-4-yl)methoxy)pyridin-3-yl)methyl)isoxazol-5-yl)pyridin-2-amine]: the MIC (in the experiment on Cryptococcus gattii; in the experiment with Candida albicans 90028; in experiment [3]) was 0.1 to 1 µg/mL (≈ 0.264 to 2.64 µM) throughout. The minimal effective concentration in experiment [1] was above 1 µg/mL; in experiment [2], 0.1 to 1 µg/mL.

`Nc1ncccc1-c1cc(Cc2ccc(OCc3ccc(F)cn3)nc2)no1` [compound 51, 3-(3-((6-((5-fluoropyridin-2-yl)methoxy)pyridin-3-yl)methyl)isoxazol-5-yl)pyridin-2-amine]: the MIC (in the experiment with Cryptococcus gattii; against Candida albicans 90028; in experiment [3]) was 0.1 to 1 µg/mL (≈ 0.265 to 2.65 µM) throughout. Moreover, the minimal effective concentration lay within 0.1 to 1 µg/mL in experiment [1] and 0.01 to 0.1 µg/mL in experiment [2].

In the case of `Nc1ncccc1-c1cc(Cc2ccc(OCc3ncco3)nc2)no1` [compound 53, 3-(3-((6-(oxazol-2-ylmethoxy)pyridin-3-yl)methyl)isoxazol-5-yl)pyridin-2-amine], the MIC (with Cryptococcus gattii; with Candida albicans 90028; in experiment [3]) was 0.1 to 1 µg/mL (≈ 0.286 to 2.86 µM) each time. For the same compound, the minimal effective concentration in experiment [1] and in experiment [2] was 0.1 to 1 µg/mL in each case.

The term MIC denotes the smallest concentration in the dilution series that meets the test's criterion for growth inhibition. As a reminder, the minimal effective concentration is the smallest amount tested that counted as effective. Low readings indicate an effect from little substance, high ones a need for much substance.
